For three molecules, EC50, Ki and inhibition results are on record in ChEMBL document CHEMBL1145629, “Design of (N)-methanocarba adenosine 5'-uronamides as species-independent A3 receptor-selective agonists” (Bioorg Med Chem Lett, 2008).

As a reminder, the EC50 is the concentration at which the effect is half-maximal. The Ki is the equilibrium dissociation constant of an inhibitor or competing ligand from its target. Broadly, the inhibition is the relative decrease from the control value, in per cent. A low value points to a response near the control.

Molecules are shown by their SMILES.

For one test, the target named is T1, Adenosine receptor A2b (Mus musculus, UniProt Q60614).
T1 sequence (Q60614 whole entry): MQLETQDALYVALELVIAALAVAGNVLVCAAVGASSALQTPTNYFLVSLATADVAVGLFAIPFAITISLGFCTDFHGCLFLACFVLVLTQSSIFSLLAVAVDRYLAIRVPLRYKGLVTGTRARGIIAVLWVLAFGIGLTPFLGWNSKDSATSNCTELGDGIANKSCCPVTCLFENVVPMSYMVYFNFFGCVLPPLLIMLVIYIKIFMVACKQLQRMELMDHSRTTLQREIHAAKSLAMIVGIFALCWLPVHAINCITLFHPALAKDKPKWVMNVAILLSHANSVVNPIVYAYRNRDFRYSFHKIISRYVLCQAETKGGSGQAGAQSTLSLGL
In words: Activation of mouse adenosine A2B receptor.

A further test deals with T2, Adenosine receptor A1 (Mus musculus, UniProt Q60612).
T2 sequence (Q60612 whole entry): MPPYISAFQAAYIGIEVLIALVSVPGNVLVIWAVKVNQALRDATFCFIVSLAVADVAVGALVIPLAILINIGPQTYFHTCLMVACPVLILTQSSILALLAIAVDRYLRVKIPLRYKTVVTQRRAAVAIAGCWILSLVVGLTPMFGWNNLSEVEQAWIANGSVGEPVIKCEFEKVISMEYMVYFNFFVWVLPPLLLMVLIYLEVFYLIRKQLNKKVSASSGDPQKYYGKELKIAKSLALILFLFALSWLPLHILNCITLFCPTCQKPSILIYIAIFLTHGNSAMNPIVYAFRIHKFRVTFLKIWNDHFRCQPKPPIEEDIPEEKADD
As to the kind of experiment: Displacement of [125I]N6-(4-amino-3-iodobenzyl)adenosine-5'-N-methyl-uronamide from mouse recombinant adenosine A1 receptor expressed in HEK293 cells. The class given is cell-based. Background: Displacement assays read how much labelled ligand stays bound in the presence of the test substance.

The target in test [1] is Adenosine receptor A2a (Mus musculus, UniProt Q60613). As to the kind of experiment: Displacement of [3H]2-[p-(2-carboxyethyl)phenyl-ethylamino]-5'-N-ethylcarboxamidoadenosine from mouse recombinant adenosine A2A receptor expressed in HEK293 cells. In kind it is cell-based.
Chain of Adenosine receptor A2a (Mus musculus, UniProt Q60613) (Q60613 whole entry): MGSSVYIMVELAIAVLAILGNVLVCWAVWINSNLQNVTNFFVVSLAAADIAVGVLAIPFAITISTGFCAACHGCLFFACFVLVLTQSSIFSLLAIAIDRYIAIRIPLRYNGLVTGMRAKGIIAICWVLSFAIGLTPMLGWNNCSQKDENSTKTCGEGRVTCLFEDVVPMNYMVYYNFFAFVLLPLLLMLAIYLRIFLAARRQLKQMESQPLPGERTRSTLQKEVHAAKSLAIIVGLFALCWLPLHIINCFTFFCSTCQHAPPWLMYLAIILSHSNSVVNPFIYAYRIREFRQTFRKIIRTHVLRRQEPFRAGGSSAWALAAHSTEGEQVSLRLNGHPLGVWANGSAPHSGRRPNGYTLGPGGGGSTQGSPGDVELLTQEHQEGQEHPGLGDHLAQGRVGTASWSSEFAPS
Test [2] deals with Adenosine receptor A2a (Rattus norvegicus, UniProt P30543). As to the kind of experiment: Displacement of radioligand from rat adenosine A2A receptor.
Chain of Adenosine receptor A2a (Rattus norvegicus, UniProt P30543) (P30543 whole entry): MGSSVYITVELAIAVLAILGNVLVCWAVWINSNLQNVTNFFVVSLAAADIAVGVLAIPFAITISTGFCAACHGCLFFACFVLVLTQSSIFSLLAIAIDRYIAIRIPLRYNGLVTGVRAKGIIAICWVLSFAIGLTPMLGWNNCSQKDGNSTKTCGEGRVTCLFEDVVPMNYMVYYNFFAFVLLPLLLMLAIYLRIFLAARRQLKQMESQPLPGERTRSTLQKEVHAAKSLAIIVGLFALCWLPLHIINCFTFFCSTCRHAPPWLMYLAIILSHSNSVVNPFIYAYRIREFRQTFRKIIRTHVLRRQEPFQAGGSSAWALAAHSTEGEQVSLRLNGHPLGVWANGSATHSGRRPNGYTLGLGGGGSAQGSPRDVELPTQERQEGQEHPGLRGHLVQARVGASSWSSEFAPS
The target of test [3] is Adenosine receptor A2a (Homo sapiens, UniProt P29274). In words: Displacement of radioligand from human A2A adenosine receptor expressed in HEK293 cells at 10 uM. In kind it is cell-based.
Chain of Adenosine receptor A2a (Homo sapiens, UniProt P29274) (P29274 whole entry): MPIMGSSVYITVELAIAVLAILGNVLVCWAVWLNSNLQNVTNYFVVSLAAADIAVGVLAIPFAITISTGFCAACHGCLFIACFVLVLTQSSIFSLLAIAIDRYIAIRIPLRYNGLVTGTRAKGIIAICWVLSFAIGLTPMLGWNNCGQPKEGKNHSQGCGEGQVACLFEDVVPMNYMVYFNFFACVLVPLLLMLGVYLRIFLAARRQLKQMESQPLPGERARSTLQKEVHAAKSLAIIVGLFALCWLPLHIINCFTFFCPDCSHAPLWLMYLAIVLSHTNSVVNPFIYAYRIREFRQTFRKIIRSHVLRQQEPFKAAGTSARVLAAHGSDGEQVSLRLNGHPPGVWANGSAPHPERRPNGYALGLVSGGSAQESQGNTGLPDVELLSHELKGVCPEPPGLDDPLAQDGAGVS
For the next test, the target named is T3, Adenosine receptor A3 (Mus musculus, UniProt Q61618).
T3 sequence (Q61618 whole entry): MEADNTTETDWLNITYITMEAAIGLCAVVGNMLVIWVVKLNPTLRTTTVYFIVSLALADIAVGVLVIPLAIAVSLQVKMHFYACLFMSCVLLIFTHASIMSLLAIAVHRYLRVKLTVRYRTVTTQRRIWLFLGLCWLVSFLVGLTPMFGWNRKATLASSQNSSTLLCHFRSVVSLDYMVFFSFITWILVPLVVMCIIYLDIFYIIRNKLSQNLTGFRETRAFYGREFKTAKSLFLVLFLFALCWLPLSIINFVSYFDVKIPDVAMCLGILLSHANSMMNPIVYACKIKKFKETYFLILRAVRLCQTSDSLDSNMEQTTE
As to the kind of experiment: Displacement of [125I]N6-(-amino-3-iodobenzyl)adenosine-5'-N-methyl-uronamide from mouse recombinant adenosine A3 receptor expressed in HEK293 cells. In kind it is cell-based.

With `CNC(=O)[C@H]1O[C@@H](n2cnc3c(NCc4cccc(I)c4)nc(Cl)nc32)[C@H](O)[C@@H]1O` [NAMODENOSON], the concentration for a half-maximal effect (EC50) at Adenosine receptor A2b is not below 10 µM. Also, the Ki is 35 nM at Adenosine receptor A1 and 10 µM on Adenosine receptor A2a [1].

With `CNC(=O)[C@@]12C[C@@H]1[C@@H](n1cnc3c(NC)nc(Cl)nc31)[C@H](O)[C@@H]2O`, the values for the Ki at Adenosine receptor A2a [2], on Adenosine receptor A1 and on Adenosine receptor A3 were more than 10 µM, 55.3 nM and 49 nM, respectively. Also, the inhibition on Adenosine receptor A2a [3] came to 6%.

Turning to `CNC(=O)[C@H]1O[C@@H](n2cnc3c(NCc4cccc(I)c4)ncnc32)[C@H](O)[C@@H]1O` [IB-MECA], at Adenosine receptor A2b, the EC50 was not below 10 µM. Moreover, the Ki is 5.9 nM at Adenosine receptor A1, 1 µM on Adenosine receptor A2a [1] and 0.087 nM on Adenosine receptor A3.
